Experimental data published in patent US20150147417A1, “METHOD AND PHARMACEUTICAL COMPOSITION FOR LIVER FIBROSIS PREVENTION AND/OR TREATMENT” (National Dong Hua University, priority 2013, published 2015).

Experiments:
Format in all cases: cell-based, male Sprague-Dawley rat
[1] = test system: NHSC (non-induced hepatic stellate cells); experiment: Oil red O staining of lipid droplets; conditions: curcumin 25 μM, 12 and 24 h, compared to BL extract treated cells
Procedure: (§1) Non-induced hepatic stellate cells (NHSC, purity >95%) were isolated from male Sprague-Dawley rat liver, and Thioacetamide (TAA; Fluka Chemie GmbH, Buchs, Switzerland)-induced hepatic stellate cells (THSC, purity >95%) were isolated from TAA-induced fibrotic liver of male Sprague-Dawley rat (Chang et al., 2009). Both cells were maintained in complete DMEM containing 10% heat-inactivated FBS and 1% penicillin/streptomycin. NHSC and THSC cells (1×10^5 cells) were seeded in 6 well plates and incubated at 37° C. overnight. Then, cells were treated with various concentrations of BL extract (100, 250, and 500 μg/ml) or curcumin (25 μM) for 12 and 24 h. Cells were washed twice with PBS and fixed with pre-warmed 3.7% paraformaldehyde for 10 min. Cells were then stained with diluted Oil red O stock solution 0.5% (w/v) in isopropanol (Fluka; buffer/water=3/2) at room temperature for 1 h under the dark. Cells were washed with 50% isopropanol and counter-stained with Hematoxylin (Sigma-Aldrich) for 1 min. Results were photographed using Olympus CKX-41 (Olympus Corporation, Tokyo, Japan). Two kinds of hepatic stellate cells were used; that is, Non-chemical induced hepatic stellate cells (NHSC), and thioacetamide-induced hepatic stellate cells (THSC) for imitating a naturally-occurred activated HSC. […]

[2] = test system: THSC (thioacetamide-induced hepatic stellate cells); experiment: Oil red O staining of lipid droplets; conditions: curcumin 25 μM, 12 and 24 h, compared to BL extract treated cells
Procedure: as §1

[3] = test system: MMP2; experiment: MMP2 level (gelatin zymography) in NHSC; conditions: curcumin 25 μM
Procedure: (§2) Protein expression level was determined by western blotting and normalized with β-actin. Data are normalized to normal control (N) and expressed as mean±SEM in triplicate determinations. a, vs. N; b, vs. Cur. *, p<0.05; **, p<0.01; ***, p<0.001. Non-induced hepatic stellate cells (NHSC, purity >95%) were isolated from male Sprague-Dawley rat liver, and Thioacetamide (TAA; Fluka Chemie GmbH, Buchs, Switzerland)-induced hepatic stellate cells (THSC, purity >95%) were isolated from TAA-induced fibrotic liver of male Sprague-Dawley rat (Chang et al., 2009). Both cells were maintained in complete DMEM containing 10% heat-inactivated FBS and 1% penicillin/streptomycin. The activity of MMP2 was assayed by gelatine zymography, which can detect the active form and latent form of MMP2. NHSC and THSC (2×10^5 cells) were seeded in 6 well plates and incubated for 70 to 80% confluence. Cells were starved in DMEM containing 0.1% BSA for 6 h, and then treated with various concentrations of BL extract (100, 250, and 500 μg/ml) or curcumin (25 μM) for 12 and 24 h. Media were collected and centrifuged at 12,000×g for 30 min at 4° C. The supernatants were collected and protein concentration was quantified by Bradford dye (Bio-Rad). 8% SDS-PAGE gels were prepared containing 10% gelatin. […] Gels were scanned using Epson scanner and quantified using multi-gauge software (Fujifilm).

[4] = test system: MMP2; experiment: MMP2 level (gelatin zymography) in THSC; conditions: curcumin 25 μM, except 24 h treatment
Procedure: as §2

[5] = test system: THSC; experiment: Western blotting of protein expression levels; conditions: curcumin 25 μM
Procedure: (§3) Non-induced hepatic stellate cells (NHSC, purity >95%) were isolated from male Sprague-Dawley rat liver, and Thioacetamide (TAA; Fluka Chemie GmbH, Buchs, Switzerland)-induced hepatic stellate cells (THSC, purity >95%) were isolated from TAA-induced fibrotic liver of male Sprague-Dawley rat (Chang et al., 2009). Both cells were maintained in complete DMEM containing 10% heat-inactivated FBS and 1% penicillin/streptomycin. NHSC and THSC (5×10^5 cells) were seeded in 6 cm dish and grown till 80% confluence, and then incubated with various concentrations of BL extract (100, 250, and 500 μg/ml) or curcumin (25 μM) for 12 and 24 h. Cells were collected and lysed with RIPA buffer (150 mM NaCl, 0.1% Triton X-100, 0.5% sodium deoxycholate, 0.1% SDS, 50 mM Tris-HCl, pH 8.0). Protease inhibitor (Roche Applied Science, Mannheim, Germany) containing pancreas extract, thermolysin, chymotrypsin, trypsin, and papain was mixed with 50 ml RIPA buffer before use. Protein samples (30 μg/well) were loaded and separated with SDS-PAGE, and then transferred to PVDF membrane (PerkinElmer, Turku, Finland). The membrane was blocked with 5% non-fat milk in TBST (20 mM Tris-HCl, pH 7.4, 137 mM NaCl, and 0.05% Tween-20) at room temperature for 1 h. The membranes were incubated with primary antibodies (Table 1) at 4° C. overnight. The membranes were washed 3 times with TBST and then incubated with horseradish peroxidase (HRP)-conjugated secondary antibodies at room temperature for 1 h. Following incubation with HRP-conjugated secondary antibodies, membranes were treated with ECL reagents (PerkinElmer) for 1 min, and results were developed on LAS-3000 film (Fujifilm, Tokyo, Japan).

[6] = test system: NHSC; experiment: Western blotting of protein expression levels; conditions: curcumin 25 μM
Procedure: as §3

SMILES: COc1cc(/C=C/C(=O)CC(=O)/C=C/c2ccc(O)c(OC)c2)ccc1O [curcumin]
- lipid droplets (Oil red O) [1]: Fewer lipid droplets were increased
- lipid droplets (Oil red O) [2]: Fewer lipid droplets were increased
- expression level of MMP2 [3]: can reduce
- expression level of MMP2 [4]: can reduce
- expression level of TIMP2 ([5]; 24 h, vs normal control): significantly reduced
- Col 1 expression level ([5]; except 24 h treatment): failed to reduce
- TGF-β1 level ([5]; except 24 h treatment): cannot reduce
- α-SMA expression level ([5]; except 24 h treatment): failed to reduce
- Col 1 expression level [6]: failed to reduce
- TGF-β1 level [6]: cannot reduce
- TGF-β R1 level [6]: significantly reduced
- α-SMA expression level [6]: failed to reduce
- expression level of TIMP2 ([6]; 24 h, vs normal control): significantly reduced
